TGI and GI50 data for 25 compounds are collected here from PubChem BioAssay (NCI).

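Exposure lasted 48 hours, with cells grown in 96-well plates and compounds tested at five concentrations. GI50: concentration for 50% inhibition of growth. The concentration for full growth arrest is given as TGI.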 Where a SMILES comes first, the peptide text is derived from it. [ ]: non-standard residue; d: D form. The star is where a group is joined. Palmitoyl = CCCCCCCCCCCCCCCC(=O)*; Cbz = O=C(OCc1ccccc1)*; Aib = CC(C)(N)C(=O)O; OBn = c1ccc(CO*)cc1

Holding throughout (assay): inhibition of tumour cell growth, NCI panel, 48 h
Assay [1] relates to A549 NSCLC.
Assay [2] concerns CCRF-CEM leukemia.
Assay [3] deals with COLO 205 colon.
The subject of assay [4] is OVCAR-3 ovarian.
For assay [5], the system named is OVCAR-5 ovarian.
The subject of assay [6] is SF-295 CNS.
Assay [7] deals with SK-MEL-2 melanoma.
The test system of assay [8] is T-47D breast.
The test system of assay [9] is UACC-62 melanoma.
Assay [10] concerns UO-31 renal.

On to `O=C(CN1C(=O)CC(c2ccccc2)(c2ccccc2)C1=O)N1CCN(CCO)CC1`, for which the TGI in assay [1], in assay [2], in assay [3], in [4], in [5] and in assay [6] was over 100 µM each time. Besides, the TGI in assay [7], in assay [8], in [9] and in [10] was over 100 µM in each case.
Consider `CC1OC(O[C@H]2C3C=CO[C@@H](OC4OC(CO)C(O)C(O)C4O)C3[C@@]3(COC(=O)/C=C/c4ccccc4)O[C@@H]23)C(O)C(O)C1O` (some centres undefined), for which the TGI in assay [1], in [2], in assay [3], in assay [4], in assay [5] and in [6] was over 100 µM throughout. The TGI in assay [7], in assay [8], in assay [9] and in assay [10] was over 100 µM in each case.
Turning to `CC(NC(=O)C(C)(C)NC(=O)C(CC(=O)OCc1ccccc1)NC(=O)OCc1ccccc1)C(N)=O` (centres undefined) (Cbz-Asp(OBn)-[Aib]-Ala-NH2; configuration not given here), the TGI in [1], in [2], in assay [3], in assay [4], in assay [5] and in [6] was over 100 µM in each case. Moreover, the TGI in [7], in assay [8], in [9] and in assay [10] was over 100 µM throughout.
With `CCOC(=O)c1c2cccccc-2nc1Nc1cccc2c(C)ccnc12`, the TGI in assay [1], in assay [2], in assay [3], in [4], in assay [5] and in [6] was over 10 µM throughout. For the same compound, the TGI in assay [7], in [8], in assay [9] and in assay [10] was over 10 µM throughout.
Take `Nc1ncnc2c1ccn2C/C=C/CO`: the TGI in assay [1], in assay [2], in assay [3], in assay [4], in assay [5] and in assay [6] was over 100 µM each time. Also, the TGI in assay [7], in assay [8], in assay [9] and in [10] was over 100 µM throughout.
In the case of `CCc1n[nH]c(=O)n1-c1ccc2ccccc2c1`, the TGI in assay [1], in assay [2], in assay [3], in assay [4], in assay [5] and in [6] was over 100 µM in each case. The TGI in assay [7], in assay [8], in [9] and in assay [10] was over 100 µM throughout.
On to `CCCCCCCCCCCCCCCC(=O)N1CCCC1C(=O)NCC(=O)NC(Cc1ccccc1)C(=O)N1CCCC1C(=O)NC(CO)C(=O)NC(Cc1ccc(O)cc1)C(=O)NC(CCCCN)C(=O)NC(CC(C)C)C(=O)NC(CCCN=C(N)N)C(=O)N1CCCC1C(=O)NCC(N)=O` (centres undefined) (Palmitoyl-PGFPSYKLRPG-NH2; configuration not given here), for which the GI50 was 17.5 µM in assay [1]; 17 µM in assay [2]; 10.3 µM in assay [3]; 33.3 µM in assay [4]; 17.1 µM in assay [5]; 26.5 µM in assay [6]. The GI50 in [7] is 46.2 µM; in [8], 17.9 µM; in [10], 20.5 µM. Besides, the TGI was 35.4 µM in [1]; 33.8 µM in assay [2]; 33.3 µM in assay [3]; over 100 µM in [4]; 37.8 µM in assay [5]; 75.9 µM in [6]. Moreover, the TGI in assay [7] was over 100 µM; in [8] it was 48.5 µM; in assay [10], 56.8 µM.
Take `C=C(C)[C@H]1C2=CC(C(=O)OC)=C(C[C@H](C(=C)C)[C@@H](O)[C@@H](O)C3=C[C@H]1OC3=O)O2`: the TGI in assay [1], in assay [2], in assay [3], in [4], in assay [5] and in [6] was over 100 µM each time. The TGI in [7] was over 100 µM; in assay [8] it was over 100 µM; in assay [9], over 100 µM; in [10], 85.6 µM.
As to `C/C1=C\[C@H](C)C[C@H](C)OC(=O)[C@H](C)NC(=O)[C@@H](Cc2ccc(O)c(Br)c2)N(C)C(=O)[C@H](C)NC(=O)[C@@H](C)C1`, the TGI was over 25 µM in assay [1]; over 10.3 µM in assay [2]; over 25 µM in assay [3]; 3.84 µM in assay [4]; over 25 µM in assay [5]; 4.9 µM in assay [6]. The TGI was 9.34 µM in assay [7], over 25 µM in assay [8], over 25 µM in [9] and 0.152 µM in assay [10].
Consider `CSc1nc2c(c(N(C)C)n1)C(O)n1c(nc3ccccc31)S2` (centres undefined), for which the TGI is over 100 µM in assay [1]; over 100 µM in [2]; over 100 µM in assay [3]; over 63.4 µM in [4]; over 100 µM in assay [5]; over 100 µM in assay [6]. The TGI was over 100 µM in assay [7], over 85.3 µM in assay [8], over 100 µM in assay [9] and over 100 µM in assay [10].
Consider `CN(C)Cc1cc(C(=O)/C=C/c2ccc([N+](=O)[O-])cc2)cc(CN(C)C)c1O`, for which the TGI in assay [1] came out at 89 µM; in assay [2] it was 21.4 µM; in assay [3] it was 4.67 µM; in assay [4] it was 20.6 µM; in [5], 34.5 µM; in [6] it was 38.9 µM. Also, the TGI in assay [7] is 30.1 µM; in assay [8], 32 µM; in [9], 33.3 µM; in assay [10], over 100 µM.
Consider `CCOC(=O)/C(C(C)=O)=C(\OC(C)=O)c1ccncc1C(=O)O`, for which the TGI in [1], in assay [2], in assay [3], in assay [4], in assay [5] and in [6] was over 100 µM throughout. Moreover, the TGI in assay [7], in assay [8], in assay [9] and in [10] was over 100 µM each time.
`CO/N=C(/C(=O)OC)c1ccccc1COc1ccccc1C(F)(F)F`: the TGI in [1], in [2], in [3], in [4], in [5] and in assay [6] was over 100 µM throughout. Further, the TGI in assay [7] is 73.2 µM; in [8], over 100 µM; in [9], over 100 µM; in assay [10], over 100 µM.
Consider `C=CCn1c(=O)ccn(/C(=C/C(=O)OCC)C(=O)OCC)c1=O`, for which the TGI in [1] was 32.3 µM; in [2] it was 6.04 µM; in assay [3], 3.97 µM; in assay [4], 18.2 µM; in assay [5], 29.9 µM; in assay [6] it was over 87.7 µM. For the same compound, the TGI in [7] was 34.3 µM; in assay [8], 19 µM; in assay [9], 29.7 µM; in assay [10], 28.6 µM.
For `COC1OC2COC(c3ccccc3)OC2C(O)C1OC(=S)c1ccccc1` (centres undefined), the TGI in assay [1] was over 100 µM; in assay [2], 48.5 µM; in assay [3], 33 µM; in assay [4], over 100 µM; in assay [5] it was over 100 µM; in [6] it was over 100 µM. Moreover, the TGI in [7] is over 100 µM; in assay [8] it was 85 µM; in [9], over 100 µM; in assay [10], over 100 µM.
Turning to `CC(C)N1CCN(c2ccc(OCC3COC(Cn4cncn4)(c4ccc(Cl)cc4Cl)O3)cc2)CC1` (centres undefined), the TGI was over 52 µM in assay [1]; 32.5 µM in assay [2]; 3.69 µM in assay [3]; 31 µM in [4]; 29.8 µM in [5]; 26.6 µM in [6]. Besides, the TGI is 30.5 µM in [7], 47.8 µM in [8], 5.66 µM in assay [9] and over 42.5 µM in assay [10].
Consider `CCN(CC)c1ccc(/C=C/c2ccnc3ccccc23)cc1`, for which the TGI in [1], in assay [2], in assay [3], in assay [4], in [5] and in [6] was over 100 µM throughout. The TGI in assay [7], in assay [8], in [9] and in [10] was over 100 µM each time.
For `O=C1C(=Nc2ccc(Nc3ccccc3)cc2)Oc2ccccc21`, the TGI was 10.7 µM in assay [1]; 4.92 µM in assay [2]; 3.01 µM in [3]; 4.42 µM in assay [4]; 10.1 µM in assay [5]; 12.1 µM in assay [6]. The TGI in [7] came out at 14.4 µM; in [8], 9.57 µM; in assay [9] it was 10.7 µM; in assay [10] it was 5.58 µM.
Consider `Cc1ccc(/C=C2/N=C(N/N=C\C(O)C(O)C(O)C(O)CO)NC2=O)cc1` (centres undefined), for which the TGI in assay [1], in [2], in assay [3], in assay [4], in assay [5] and in [6] was over 100 µM throughout. Besides, the TGI in assay [7], in assay [8] and in assay [10] was over 100 µM in each case.
As for `CC(C)C1=CC23CCC4C(C)(C(=O)O)CCCC4(C)C2CC1C1C(=O)N(CCCCCCN2C(=O)C4C5CC6C7(C)CCCC(C)(C(=O)O)C7CCC6(C=C5C(C)C)C4C2=O)C(=O)C13` (centres undefined), the TGI was found to be 45.3 µM in [1]; 37.7 µM in assay [2]; 26.8 µM in assay [4]; 37.4 µM in assay [5]; 28.2 µM in assay [7]; 41.5 µM in [8]. Moreover, the TGI in assay [9] was over 100 µM.
Take `C=C(C)CNCCN`: the TGI in assay [1], in assay [2], in assay [4], in assay [5], in [6] and in [7] was over 100 µM each time. Also, the TGI in [8], in [9] and in [10] was over 100 µM in each case.
`CC(C)(C)c1ccc2c(c1)C#Cc1cc3c(cc1OCCCO2)C#Cc1cc(C(C)(C)C)ccc1OCCCO3`: the TGI in assay [1], in [2], in assay [3], in assay [4], in assay [5] and in assay [6] was over 100 µM each time. In addition, the TGI in assay [7], in [8] and in [9] was over 100 µM throughout.
On to `COc1ccc2oc(=N)c(C(=O)Nc3ccccc3)cc2c1`, for which the TGI in assay [1] was over 100 µM; in assay [2], 37.1 µM; in assay [3], over 100 µM; in assay [4] it was over 100 µM; in assay [5], over 100 µM; in [6], 43.9 µM. Besides, the TGI is 37.4 µM in [7], over 100 µM in assay [8] and over 100 µM in [10].
Take `Cn1c2ccccc2c2c(=S)c3ccccc3ccc21`: the TGI in assay [1], in assay [2], in assay [3], in [4], in assay [5] and in assay [6] was over 100 µM in each case. The TGI in assay [8], in assay [9] and in assay [10] was over 100 µM each time.
As to `c1ccc(C2=NOC(c3ccccc3)N2C23CC4CC(CC(C4)C2)C3)cc1` (centres undefined), the TGI in [1], in [2], in assay [3], in assay [4], in [5] and in assay [6] was over 10 µM throughout. For the same compound, the TGI in assay [7], in [8] and in assay [9] was over 10 µM each time.
